Laboratory results published in ChEMBL document CHEMBL4699575, “Discovery of First-In-Class Potent and Selective Tropomyosin Receptor Kinase Degraders” (J Med Chem, 2020).
The source made the active and inactive calls. The rule behind the calls is not given here.

Legend:
KM12 [1] = test: Induction of CRBN-mediated TMP3-TRKA (unknown origin) fusion protein degradation expressed in human KM12 cells at 10 nM for 6 hrs by immunoblot analysis relative to control; type: cell-based
KM12 [2] = test: Induction of CRBN-mediated TMP3-TRKA (unknown origin) fusion protein degradation expressed in human KM12 cells at 1 nM for 6 hrs by immunoblot analysis relative to control; type: cell-based
KM12 [3] = test: Induction of CRBN-mediated TMP3-TRKA (unknown origin) fusion protein degradation expressed in human KM12 cells at 0.1 nM for 6 hrs by immunoblot analysis relative to control; type: cell-based
[4] = target: High affinity nerve growth factor receptor (Homo sapiens, UniProt P04629); test: Binding affinity to human partial length TRKA expressed in mammalian expression system by kinomescan method
Chain of High affinity nerve growth factor receptor (P04629 whole entry): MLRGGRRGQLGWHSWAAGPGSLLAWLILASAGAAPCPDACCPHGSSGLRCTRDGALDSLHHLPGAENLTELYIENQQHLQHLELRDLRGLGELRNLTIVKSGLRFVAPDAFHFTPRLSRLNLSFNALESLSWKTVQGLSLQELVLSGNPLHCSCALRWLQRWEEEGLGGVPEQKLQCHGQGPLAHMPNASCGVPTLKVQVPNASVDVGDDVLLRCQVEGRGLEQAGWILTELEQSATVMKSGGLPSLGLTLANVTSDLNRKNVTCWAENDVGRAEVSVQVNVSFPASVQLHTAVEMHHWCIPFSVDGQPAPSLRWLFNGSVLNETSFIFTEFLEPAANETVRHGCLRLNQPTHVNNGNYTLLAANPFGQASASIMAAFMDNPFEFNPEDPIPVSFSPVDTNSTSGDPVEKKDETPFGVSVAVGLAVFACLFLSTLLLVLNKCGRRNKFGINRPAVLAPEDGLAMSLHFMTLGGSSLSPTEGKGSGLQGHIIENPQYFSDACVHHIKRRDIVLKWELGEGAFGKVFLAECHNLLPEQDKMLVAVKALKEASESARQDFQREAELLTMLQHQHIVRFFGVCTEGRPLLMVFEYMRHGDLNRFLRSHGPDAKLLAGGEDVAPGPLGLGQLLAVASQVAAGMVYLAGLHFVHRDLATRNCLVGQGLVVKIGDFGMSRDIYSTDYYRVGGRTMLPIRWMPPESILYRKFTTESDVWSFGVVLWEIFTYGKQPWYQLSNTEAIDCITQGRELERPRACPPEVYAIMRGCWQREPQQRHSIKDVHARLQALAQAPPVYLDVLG

[5] = target: BDNF/NT-3 growth factors receptor (Homo sapiens, UniProt Q16620); test: Binding affinity to human partial length TRKB expressed in mammalian expression system by kinomescan method
Chain of BDNF/NT-3 growth factors receptor (Q16620 whole entry): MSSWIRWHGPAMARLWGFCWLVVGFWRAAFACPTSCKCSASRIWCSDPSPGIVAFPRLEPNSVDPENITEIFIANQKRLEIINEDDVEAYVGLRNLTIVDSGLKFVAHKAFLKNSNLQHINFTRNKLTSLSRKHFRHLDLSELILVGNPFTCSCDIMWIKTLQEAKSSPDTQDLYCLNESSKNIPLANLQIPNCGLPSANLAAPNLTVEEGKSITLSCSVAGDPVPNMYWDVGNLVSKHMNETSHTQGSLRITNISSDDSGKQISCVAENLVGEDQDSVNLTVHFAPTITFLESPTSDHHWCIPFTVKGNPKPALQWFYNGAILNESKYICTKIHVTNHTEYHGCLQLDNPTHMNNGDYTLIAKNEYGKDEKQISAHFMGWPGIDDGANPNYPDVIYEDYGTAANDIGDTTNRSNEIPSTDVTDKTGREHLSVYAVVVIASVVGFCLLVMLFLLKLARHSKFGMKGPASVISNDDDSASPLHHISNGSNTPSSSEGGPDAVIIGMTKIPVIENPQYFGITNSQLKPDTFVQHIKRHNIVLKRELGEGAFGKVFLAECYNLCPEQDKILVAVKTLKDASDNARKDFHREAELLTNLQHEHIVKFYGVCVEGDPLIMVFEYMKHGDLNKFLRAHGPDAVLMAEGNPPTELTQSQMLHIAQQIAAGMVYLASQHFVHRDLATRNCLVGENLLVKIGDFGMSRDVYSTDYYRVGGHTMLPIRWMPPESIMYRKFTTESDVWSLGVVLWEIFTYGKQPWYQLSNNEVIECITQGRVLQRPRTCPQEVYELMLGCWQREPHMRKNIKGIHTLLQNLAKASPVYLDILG

[6] = Binding affinity to human partial length TRKC expressed in mammalian expression system by kinomescan method
[7] = Induction of CRBN-mediated TMP3-TRKA (unknown origin) fusion protein degradation expressed in human KM12 cells for 6 hrs by immunoblot analysis; type: cell-based; settings: KM12, 6 h
[8] = (§1) Induction of CRBN-mediated TMP3-TRKA (unknown origin) fusion protein degradation expressed in human KM12 cells assessed as inhibition of PLC-gamma1 phosphorylation for 6 hrs by immunoblot analysis; type: cell-based; settings: KM12, 6 h
KM12 [9] = test: as §1; type: cell-based
KM12 [10] = test: Induction of CRBN-mediated TMP3-TRKA (unknown origin) fusion protein degradation expressed in human KM12 cells at 30 nM for 6 hrs by immunoblot analysis; type: cell-based
KM12 [11] = test: Effect on GSPT1 expression in human KM12 cells at 0.04 to 30 nM for 6 hrs by immunoblot analysis; type: functional, cell-based; settings: dose nM 0.04-30, time 6.0 hrs
KM12 [12] = test: Induction of CRBN-mediated TMP3-TRKA (unknown origin) fusion protein degradation expressed in human KM12 cells at 10 nM for 0.3 hrs by immunoblot analysis; type: cell-based
KM12 [13] = test: Induction of CRBN-mediated TMP3-TRKA (unknown origin) fusion protein degradation expressed in human KM12 cells assessed as inhibition of PLC-gamma1 phosphorylation at 10 nM for 0.3 hrs by immunoblot analysis; type: cell-based
KM12 [14] = test: Induction of CRBN-mediated TMP3-TRKA (unknown origin) fusion protein degradation expressed in human KM12 cells at 10 nM for 4 hrs by immunoblot analysis; type: cell-based
KM12 [15] = test: Induction of CRBN-mediated TMP3-TRKA (unknown origin) fusion protein degradation expressed in human KM12 cells assessed as inhibition of PLC-gamma1 phosphorylation at 10 nM for 4 hrs by immunoblot analysis; type: cell-based
[16] = target: T1, Protein cereblon/High affinity nerve growth factor receptor (Homo sapiens, UniProt P04629+Q96SW2); test: Induction of CRBN-mediated TRKA degradation in human HEL cells for 6 hrs by immunoblot analysis; type: cell-based
Target sequence in this assay (P04629 whole entry, the tested form may be a part): as the sequence (P04629 whole entry) above
Target sequence in this assay (Q96SW2 whole entry, the tested form may be a part): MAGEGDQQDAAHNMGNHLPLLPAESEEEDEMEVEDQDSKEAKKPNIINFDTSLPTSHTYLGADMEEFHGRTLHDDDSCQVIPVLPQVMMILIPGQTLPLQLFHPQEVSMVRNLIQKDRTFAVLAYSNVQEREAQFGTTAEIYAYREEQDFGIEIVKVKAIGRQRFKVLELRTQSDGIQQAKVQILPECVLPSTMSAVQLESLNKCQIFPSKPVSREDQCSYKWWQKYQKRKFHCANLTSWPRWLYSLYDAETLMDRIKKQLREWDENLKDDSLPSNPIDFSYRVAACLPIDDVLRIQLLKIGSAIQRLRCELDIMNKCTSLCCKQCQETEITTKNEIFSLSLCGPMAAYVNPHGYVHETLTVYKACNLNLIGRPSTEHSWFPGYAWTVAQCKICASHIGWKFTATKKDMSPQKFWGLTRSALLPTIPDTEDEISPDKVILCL

KM12 [17] = test: Induction of CRBN-mediated AGBL4-TRKB (unknown origin) fusion protein degradation expressed in human KM12 cells at 0.7 to 500 nM for 6 hrs by immunoblot analysis; type: cell-based; settings: dose nM 0.7-500, time 6.0 hrs
KM12 [18] = test: Induction of CRBN-mediated ETV6-TRKC (unknown origin) fusion protein degradation expressed in human KM12 cells at 0.7 to 500 nM for 6 hrs by immunoblot analysis; type: cell-based; settings: dose nM 0.7-500, time 6.0 hrs
KM12 [19] = test: Induction of CRBN-mediated TMP3-TRKA (unknown origin) fusion protein degradation expressed in human KM12 cells at 10 nM for 6 hrs pretreated with pomalidomide by immunoblot analysis; type: cell-based
KM12 [20] = test: Induction of CRBN-mediated TMP3-TRKA (unknown origin) fusion protein degradation expressed in human KM12 cells at 10 nM for 6 hrs pretreated with MG-132 by immunoblot analysis; type: cell-based
KM12 [21] = test: Induction of CRBN-mediated TMP3-TRKA (unknown origin) fusion protein degradation expressed in human KM12 cells at 10 nM for 6 hrs pretreated with bortezomib by immunoblot analysis; type: cell-based
KM12 [22] = test: Induction of CRBN-mediated TMP3-TRKA (unknown origin) fusion protein degradation expressed in human KM12 cells at 10 nM for 6 hrs pretreated with MLN4924 by immunoblot analysis; type: cell-based
[23] = target: T2, Tropomyosin alpha-3 chain/High affinity nerve growth factor receptor (Homo sapiens) (UniProt P04629+P06753); test: Induction of TMP3-TRKA (unknown origin) fusion protein degradation expressed in human KM12 cells transfected with siCRBN-1 at 0.1 to 10 nM for 6 hrs by immunoblot analysis; type: cell-based; settings: dose nM 0.1-10, time 6.0 hrs
T2 sequence (P04629 whole entry, looked up, the tested form may be a part): as the sequence (P04629 whole entry) above
T2 sequence (P06753 whole entry, looked up, the tested form may be a part): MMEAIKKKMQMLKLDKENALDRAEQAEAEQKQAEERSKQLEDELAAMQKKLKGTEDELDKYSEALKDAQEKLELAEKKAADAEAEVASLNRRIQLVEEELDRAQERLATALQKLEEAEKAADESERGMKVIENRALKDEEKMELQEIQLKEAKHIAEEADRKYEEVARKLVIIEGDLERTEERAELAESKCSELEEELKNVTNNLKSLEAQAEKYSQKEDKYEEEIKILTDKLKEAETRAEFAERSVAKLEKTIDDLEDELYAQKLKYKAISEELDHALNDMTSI

[24] = target: T2, Tropomyosin alpha-3 chain/High affinity nerve growth factor receptor (Homo sapiens); test: Induction of TMP3-TRKA (unknown origin) fusion protein degradation expressed in human KM12 cells transfected with siCRBN-2 at 0.1 to 10 nM for 6 hrs by immunoblot analysis; type: cell-based; settings: dose nM 0.1-10, time 6.0 hrs
KM12 [25] = test: Antiproliferative activity against human KM12 cells assessed as reduction in cell viability measured after 3 days by Celltiter-Glo assay; type: functional, cell-based; settings: KM12, 72 h
[26] = Cmax in ICR mouse at 10 mg/kg, ip measured for 1 hr; type: ADME, organism-based; design: route intraperitoneal, dose 10 mg/kg, time 1 hrs; settings: in vivo
[27] = Plasma concentration in ICR mouse at 10 mg/kg, ip measured at 8 hrs; type: ADME, organism-based
[28] = Half life in ICR mouse at 10 mg/kg, ip measured upto 8 hrs; type: ADME, organism-based; settings: in vivo
KM12 [29] = test: Effect on GSPT1 expression in human KM12 cells at 30 nM for 6 hrs by immunoblot analysis; type: functional, cell-based
[30] = target: T1, Protein cereblon/High affinity nerve growth factor receptor; test: Induction of CRBN-mediated TRKA degradation in human HEL cells at 30 nM for 6 hrs by immunoblot analysis; type: cell-based
Target sequence in this assay (P04629 33-796 limits assumed): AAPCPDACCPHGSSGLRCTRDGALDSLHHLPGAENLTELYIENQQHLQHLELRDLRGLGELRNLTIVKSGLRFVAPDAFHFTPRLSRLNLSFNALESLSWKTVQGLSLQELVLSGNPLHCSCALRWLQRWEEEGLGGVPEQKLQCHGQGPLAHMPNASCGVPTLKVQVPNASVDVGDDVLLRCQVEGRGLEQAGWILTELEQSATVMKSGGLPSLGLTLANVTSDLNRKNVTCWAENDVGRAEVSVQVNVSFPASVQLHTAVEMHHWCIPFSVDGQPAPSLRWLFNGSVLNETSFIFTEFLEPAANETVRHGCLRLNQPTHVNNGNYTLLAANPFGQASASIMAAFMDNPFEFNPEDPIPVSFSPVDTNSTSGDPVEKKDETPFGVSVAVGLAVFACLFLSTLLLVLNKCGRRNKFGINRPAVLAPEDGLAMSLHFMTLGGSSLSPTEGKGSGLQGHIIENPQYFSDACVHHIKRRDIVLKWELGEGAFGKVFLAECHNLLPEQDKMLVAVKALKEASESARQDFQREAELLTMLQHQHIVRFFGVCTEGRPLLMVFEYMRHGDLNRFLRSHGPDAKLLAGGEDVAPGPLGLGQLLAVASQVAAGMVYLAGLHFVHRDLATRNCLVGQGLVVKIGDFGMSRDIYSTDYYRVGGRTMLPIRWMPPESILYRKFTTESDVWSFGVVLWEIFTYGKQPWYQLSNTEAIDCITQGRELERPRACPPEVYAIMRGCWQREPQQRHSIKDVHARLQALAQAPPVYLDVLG
Target sequence in this assay (Q96SW2 whole entry partner, the tested form may be a part): as the sequence (Q96SW2 whole entry, the tested form may be a part) above

## O=C1CCC(N2C(=O)c3cccc(NCCOCCOCCOCCC(=O)N4CCN(c5cccc(-c6cnc7ccc(N8CCC[C@@H]8c8cccc(F)c8)nn67)n5)CC4)c3C2=O)C(=O)N1 (some centres undefined)
KM12 [1]
  Activity: 86%
KM12 [2]
  Activity: 28%
KM12 [3]
  Activity: 22%

## O=C1CCC(N2C(=O)c3cccc(NCCCCCCCC(=O)N4CCN(c5cccc(-c6cnc7ccc(N8CCC[C@@H]8c8cccc(F)c8)nn67)n5)CC4)c3C2=O)C(=O)N1 (some centres undefined)
KM12 [1]
  Activity: 83%
KM12 [2]
  Activity: 21%
KM12 [3]
  Activity: 20%

## O=C1CCC(N2C(=O)c3cccc(NCCCCCC(=O)N4CCN(c5cccc(-c6cnc7ccc(N8CCC[C@@H]8c8cccc(F)c8)nn67)n5)CC4)c3C2=O)C(=O)N1 (some centres undefined)
[4]
  Kd: 2.1 nM
KM12 [1]
  Activity: 96%
KM12 [2]
  Activity: 65%
KM12 [3]
  Activity: 18%
[5]
  Kd: 112 nM
[6]
  Kd: 18 nM
[7]
  DC50: 0.48 nM
[8]
  IC50: 30 nM
KM12 [9]
  inhibition: Dose-dependent effect
KM12 [10]
  Activity: Active
KM12 [11]
  Activity: inactive
KM12 [12]
  Activity: Active
KM12 [13]
  inhibition: Active
KM12 [14]
  Activity: Active
KM12 [15]
  inhibition: Active
[16]
  DC50: 1.26 nM
KM12 [17]
  Activity: Active
KM12 [18]
  Activity: Active
KM12 [19]
  Activity: inactive
KM12 [20]
  Activity: inactive
KM12 [21]
  Activity: inactive
KM12 [22]
  Activity: inactive
[23]
  Activity: inactive
[24]
  Activity: inactive
KM12 [25]
  IC50: 5.4 nM
[26]
  Cmax: 2050 nM
[27]
  concentration at 8 h: 14.8 nM
[28]
  half-life: 54 min

## CN1C(=O)CCC(N2C(=O)c3cccc(NCCOCCC(=O)N4CCN(c5cccc(-c6cnc7ccc(N8CCC[C@@H]8c8cccc(F)c8)nn67)n5)CC4)c3C2=O)C1=O (some centres undefined)
[4]
  Kd: 0.88 nM
[5]
  Kd: 59.8 nM
[6]
  Kd: 4.8 nM
KM12 [29]
  Activity: inactive
[30]
  Activity: inactive
KM12 [25]
  IC50: 28 nM

## O=C1CCC(N2C(=O)c3cccc(NCCCCC(=O)N4CCN(c5cccc(-c6cnc7ccc(N8CCC[C@@H]8c8cccc(F)c8)nn67)n5)CC4)c3C2=O)C(=O)N1 (some centres undefined)
KM12 [1]
  Activity: 93%
KM12 [2]
  Activity: 69%
KM12 [3]
  Activity: 20%

## O=C1CCC(N2C(=O)c3cccc(NCCOCCC(=O)N4CCN(c5cccc(-c6cnc7ccc(N8CCC[C@@H]8c8cccc(F)c8)nn67)n5)CC4)c3C2=O)C(=O)N1 (some centres undefined)
[4]
  Kd: 1 nM
KM12 [1]
  Activity: 96%
KM12 [2]
  Activity: 82%
KM12 [3]
  Activity: 46%
[5]
  Kd: 28 nM
[6]
  Kd: 4.2 nM
[7]
  DC50: 0.36 nM
[8]
  IC50: 30 nM
KM12 [9]
  inhibition: Dose-dependent effect
KM12 [10]
  Activity: Active
KM12 [11]
  Activity: inactive
KM12 [12]
  Activity: Active
KM12 [13]
  inhibition: Active
KM12 [14]
  Activity: Active
KM12 [15]
  inhibition: Active
[16]
  DC50: 2.23 nM
KM12 [17]
  Activity: Active
KM12 [18]
  Activity: Active
KM12 [19]
  Activity: inactive
KM12 [20]
  Activity: inactive
KM12 [21]
  Activity: inactive
KM12 [22]
  Activity: inactive
KM12 [25]
  IC50: 52 nM
[26]
  Cmax: 1640 nM
[27]
  concentration at 8 h: 12.4 nM

## CN1C(=O)CCC(N2C(=O)c3cccc(NCCCCCC(=O)N4CCN(c5cccc(-c6cnc7ccc(N8CCC[C@@H]8c8cccc(F)c8)nn67)n5)CC4)c3C2=O)C1=O (some centres undefined)
[4]
  Kd: 2.9 nM
[5]
  Kd: 187 nM
[6]
  Kd: 24.2 nM
KM12 [29]
  Activity: inactive
[30]
  Activity: inactive
KM12 [25]
  IC50: 2.9 nM

## O=C1CCC(N2C(=O)c3cccc(NCC(=O)N4CCN(c5cccc(-c6cnc7ccc(N8CCC[C@@H]8c8cccc(F)c8)nn67)n5)CC4)c3C2=O)C(=O)N1 (some centres undefined)
KM12 [1]
  Activity: 93%
KM12 [2]
  Activity: 45%
KM12 [3]
  Activity: 15%

## O=C1CCC(N2C(=O)c3cccc(NCCOCCOCCC(=O)N4CCN(c5cccc(-c6cnc7ccc(N8CCC[C@@H]8c8cccc(F)c8)nn67)n5)CC4)c3C2=O)C(=O)N1 (some centres undefined)
KM12 [1]
  Activity: 95%
KM12 [2]
  Activity: 56%
KM12 [3]
  Activity: 30%

## O=C1CCC(N2C(=O)c3cccc(NCCC(=O)N4CCN(c5cccc(-c6cnc7ccc(N8CCC[C@@H]8c8cccc(F)c8)nn67)n5)CC4)c3C2=O)C(=O)N1 (some centres undefined)
KM12 [1]
  Activity: 65%
KM12 [2]
  Activity: 15%
KM12 [3]
  Activity: 9%

## O=C1CCC(N2C(=O)c3cccc(NCCOCCOCCOCCOCCC(=O)N4CCN(c5cccc(-c6cnc7ccc(N8CCC[C@@H]8c8cccc(F)c8)nn67)n5)CC4)c3C2=O)C(=O)N1 (some centres undefined)
KM12 [1]
  Activity: 91%
KM12 [2]
  Activity: 40%
KM12 [3]
  Activity: 22%

## O=C1CCC(N2C(=O)c3cccc(NCCCC(=O)N4CCN(c5cccc(-c6cnc7ccc(N8CCC[C@@H]8c8cccc(F)c8)nn67)n5)CC4)c3C2=O)C(=O)N1 (some centres undefined)
KM12 [1]
  Activity: 94%
KM12 [2]
  Activity: 63%
KM12 [3]
  Activity: 12%

## OC1CCN(c2cc(-c3cccc(-c4cnc5ccc(N6CCC[C@@H]6c6cccc(F)c6)nn45)n3)ccn2)CC1
[4]
  Kd: 0.81 nM
KM12 [1]
  Activity: 52%
KM12 [2]
  Activity: 16%
KM12 [3]
  Activity: 6%
[5]
  Kd: 22.7 nM
[6]
  Kd: 5.4 nM
KM12 [25]
  IC50: 16 nM

## O=C1CCC(N2C(=O)c3cccc(NCCCCCCC(=O)N4CCN(c5cccc(-c6cnc7ccc(N8CCC[C@@H]8c8cccc(F)c8)nn67)n5)CC4)c3C2=O)C(=O)N1 (some centres undefined)
KM12 [1]
  Activity: 90%
KM12 [2]
  Activity: 23%
KM12 [3]
  Activity: 21%
